Patent US11566057B2, “Long-acting co-agonists of the glucagon and GLP-1 receptors” (Merck Sharp & Dohme Corp., priority 2017, dated 2023)
Where two headings read alike, the source gives them in different places. Numbered stars: 1 amine (or outer) side, 2 acyl side, 3 side chain; on linkers, the order of the positions; unused ones are H or OH. Square brackets hold non-standard residues; d marks the D form. Side chains are listed from the residue outwards. Peptide text beside a SMILES is read from it. * marks the point of attachment. C20 diacid = O=C(O)CCCCCCCCCCCCCCCCCCC(=O)*; Phe(4-CH2NH2) = NCc1ccc(C[C@H](N)C(=O)O)cc1; C18 diacid = O=C(O)CCCCCCCCCCCCCCCCC(=O)*; αMeW = C[C@](N)(Cc1c[nH]c2ccccc12)C(=O)O; γGlu = O=C(O)[C@H](CCC(=O)[*:2])N[*:1]; Met(O2) = CS(=O)(=O)CC[C@H](N)C(=O)O; αMeD = C[C@](N)(CC(=O)O)C(=O)O; AEEA = NCCOCCOCC(=O)O; Aib = CC(C)(N)C(=O)O

How the values were obtained:
human GLP1R = target: T1, human GLP1R (Homo sapiens, UniProt P43220); assay: cAMP activity assay at the GLP-1 receptor (GLP1R); format: cell-based; conditions: summary statement: EC50 at each of the glucagon and GLP-1 receptors; read-out: EC50 at the GLP-1 receptor
T1 construct: expressed in transfected cells; growth medium holds Blasticidin and Hygromycin
T1 sequence (P43220 24-463): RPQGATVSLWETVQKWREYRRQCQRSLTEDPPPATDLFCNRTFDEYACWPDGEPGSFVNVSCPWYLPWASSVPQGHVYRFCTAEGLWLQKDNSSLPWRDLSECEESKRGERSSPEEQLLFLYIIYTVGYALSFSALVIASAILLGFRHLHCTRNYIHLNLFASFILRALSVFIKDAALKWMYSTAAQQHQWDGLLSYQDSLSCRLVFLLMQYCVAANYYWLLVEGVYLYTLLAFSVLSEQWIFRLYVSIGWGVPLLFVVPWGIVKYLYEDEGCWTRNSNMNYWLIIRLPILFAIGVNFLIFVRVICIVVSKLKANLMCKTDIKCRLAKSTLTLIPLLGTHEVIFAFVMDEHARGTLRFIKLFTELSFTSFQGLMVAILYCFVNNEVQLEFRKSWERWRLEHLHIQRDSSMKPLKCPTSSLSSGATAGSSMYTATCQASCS
Protocol: (§1) Activity of the peptides at the Glucagon receptor (GCGR) and GLP-1 receptor (GLP1R) was measured in a cAMP activity assay.
(§2) GCG/GLP-1 receptor co-agonist peptides were dissolved in 100% DMSO (dimethyl sulfoxide) and serially diluted to generate 10 point titrations. The peptide solutions were then transferred into 384-well assay plates (150 nL/well). Assay ready frozen cells expressing human GLP1R or human GCGR were suspended in growth media consisting of DMEM medium (GIBCO®), 10% FBS (GIBCO®), 1×NEAA(GIBCO®), 1×P/S (GIBCO®), 10 ug/mL Blasticidin (GIBCO®) and 200 μg/mL Hygromycin (GIBCO®). […] The cell suspensions (15 μL) were then added to the assay plates containing the peptide solutions (30,000 cells/well for human GCGR; 10,000 cells/well for human GLP1R). The cells were incubated for 1 hour at room temperature in the dark. Production of cAMP was determined using HitHunter™ cAMPXS kits (DiscoverX) following manufacturer protocol. The plates were incubated for overnight at room temperature in the dark. Luminescence was measured using an EnVision Multilabel plate reader (Perkin Elmer). Native GLP-1 and Glucagon (Bachem) are used as control peptides. EC50 values were calculated using uses a 4 parameter logistic fit based on the Levenberg-Marquardt algorithm.

human GCGR = target: T2, human GCGR (Homo sapiens, UniProt P47871); assay: cAMP activity assay at the Glucagon receptor (GCGR); format: cell-based; conditions: for hGCGR/hGLP1R (hTone): ratio of GCGR EC50 to GLP1R EC50
T2 construct: expressed in transfected cells; growth medium holds Blasticidin and Hygromycin
T2 sequence (P47871 26-477): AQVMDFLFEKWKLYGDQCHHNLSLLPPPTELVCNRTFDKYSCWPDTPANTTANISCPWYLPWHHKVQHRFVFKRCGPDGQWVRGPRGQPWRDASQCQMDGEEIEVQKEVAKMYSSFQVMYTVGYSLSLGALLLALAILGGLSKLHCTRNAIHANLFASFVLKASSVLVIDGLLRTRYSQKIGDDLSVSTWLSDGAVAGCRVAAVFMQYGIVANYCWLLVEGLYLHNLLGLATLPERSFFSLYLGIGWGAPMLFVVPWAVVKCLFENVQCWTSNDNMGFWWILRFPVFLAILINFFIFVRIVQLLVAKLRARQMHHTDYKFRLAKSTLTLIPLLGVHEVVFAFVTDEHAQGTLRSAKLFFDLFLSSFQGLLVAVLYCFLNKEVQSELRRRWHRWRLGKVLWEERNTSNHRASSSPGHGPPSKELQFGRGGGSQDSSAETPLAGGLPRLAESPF
Protocol: as §1, §2

[1] = cells expressing human GCGR, cAMP production, buffer with or without 20% human serum (not stated which), read-out: GCGR EC50 human

Row | Compound | EC50 (human GLP1R) | EC50 (human GCGR; [1]) | hGCGR/hGLP1R (hTone) (human GCGR) | EC50 (human GCGR; summary statement: EC50 at each of the glucagon and GLP-1 receptors, read-out: EC50 at the glucagon receptor)
1 | CC(C)C[C@H](NC(=O)[C@H](CC(C)C)NC(=O)[C@H](CCCCN)NC(=O)[C@H](CO)NC(=O)[C@H](Cc1ccc(O)cc1)NC(=O)[C@H](CC(=O)O)NC(=O)[C@H](CO)NC(=O)[C@@H](NC(=O)[C@H](Cc1ccccc1)NC(=O)[C@@H](NC(=O)CNC(=O)[C@H](CCC(N)=O)NC(=O)C(C)(C)NC(=O)[C@@H](N)Cc1c[nH]cn1)[C@@H](C)O)[C@@H](C)O)C(=O)N[C@@H](CC(=O)O)C(=O)N[C@@H](C)C(=O)N[C@@H](CCCNC(=N)N)C(=O)N[C@@H](C)C(=O)N[C@@H](C)C(=O)N[C@@H](CCCCNC(=O)COCCOCCNC(=O)COCCOCCNC(=O)CC[C@H](NC(=O)CCCCCCCCCCCCCCCCC(=O)O)C(=O)O)C(=O)N[C@@H](CC(=O)O)C(=O)N[C@@H](Cc1ccccc1)C(=O)N[C@H](C(=O)N[C@@H](CCC(N)=O)C(=O)N[C@@H](Cc1c[nH]c2ccccc12)C(=O)N[C@@H](CC(C)C)C(=O)N[C@@H](CCS(C)(=O)=O)C(=O)N[C@@H](CC(=O)O)C(=O)N[C@H](C(N)=O)[C@@H](C)O)C(C)C [TP597] (H-H[Aib]QGTFTSDYSKLLDARAAK([AEEA-AEEA-γGlu-C18 diacid])DFVQWL[Met(O2)]DT-NH2; N-terminus assumed) |  |  | 1.2 | 
2 | CC(C)C[C@H](NC(=O)[C@H](Cc1ccc(O)cc1)NC(=O)[C@H](CCCCN)NC(=O)[C@H](CO)NC(=O)[C@H](Cc1ccc(O)cc1)NC(=O)[C@H](CC(=O)O)NC(=O)[C@H](CO)NC(=O)[C@@H](NC(=O)[C@H](Cc1ccccc1)NC(=O)[C@@H](NC(=O)CNC(=O)[C@H](CCC(N)=O)NC(=O)C(C)(C)NC(=O)[C@@H](N)Cc1c[nH]cn1)[C@@H](C)O)[C@@H](C)O)C(=O)N[C@@H](CC(=O)O)C(=O)N[C@@H](C)C(=O)N[C@@H](CCCNC(=N)N)C(=O)N[C@@H](C)C(=O)N[C@@H](C)C(=O)N[C@@H](CCCCNC(=O)COCCOCCNC(=O)COCCOCCNC(=O)CC[C@H](NC(=O)CCCCCCCCCCCCCCCCC(=O)O)C(=O)O)C(=O)N[C@@H](CC(=O)O)C(=O)N[C@@H](Cc1ccccc1)C(=O)N[C@H](C(=O)N[C@@H](CCC(N)=O)C(=O)N[C@@](C)(Cc1c[nH]c2ccccc12)C(=O)N[C@@H](CC(C)C)C(=O)N[C@@H](CCS(C)(=O)=O)C(=O)N[C@@](C)(CC(=O)O)C(=O)N[C@H](C(N)=O)[C@@H](C)O)C(C)C [TP632] (H-H[Aib]QGTFTSDYSKYLDARAAK([AEEA-AEEA-γGlu-C18 diacid])DFVQ[αMeW]L[Met(O2)][αMeD]T-NH2) |  |  | 0.9 | 
3 | CC(C)C[C@H](NC(=O)[C@H](Cc1ccc(O)cc1)NC(=O)[C@H](CCCCN)NC(=O)[C@H](CO)NC(=O)[C@H](Cc1ccc(O)cc1)NC(=O)[C@H](CC(=O)O)NC(=O)[C@H](CO)NC(=O)[C@@H](NC(=O)[C@H](Cc1ccccc1)NC(=O)[C@@H](NC(=O)CNC(=O)[C@H](CCC(N)=O)NC(=O)C(C)(C)NC(=O)[C@@H](N)Cc1c[nH]cn1)[C@@H](C)O)[C@@H](C)O)C(=O)N[C@@H](CC(=O)O)C(=O)N[C@@H](C)C(=O)N[C@@H](CCCNC(=N)N)C(=O)N[C@@H](C)C(=O)N[C@@H](C)C(=O)N[C@@H](CCC(N)=O)C(=O)N[C@@H](Cc1ccc(CNC(=O)COCCOCCNC(=O)COCCOCCNC(=O)CC[C@H](NC(=O)CCCCCCCCCCCCCCCCC(=O)O)C(=O)O)cc1)C(=O)N[C@@H](Cc1ccccc1)C(=O)N[C@H](C(=O)N[C@@H](CCC(N)=O)C(=O)N[C@@H](Cc1c[nH]c2ccccc12)C(=O)N[C@@H](CC(C)C)C(=O)N[C@@H](CC(C)C)C(=O)N[C@@](C)(CC(=O)O)C(=O)N[C@H](C(N)=O)[C@@H](C)O)C(C)C [TP609] (H-H[Aib]QGTFTSDYSKYLDARAAQ[Phe(4-CH2NH2)]([AEEA-AEEA-γGlu-C18 diacid])FVQWLL[αMeD]T-NH2; N-terminus assumed) |  |  | 0.9 | 
4 | CC(C)C[C@H](NC(=O)[C@H](CC(C)C)NC(=O)[C@H](Cc1c[nH]c2ccccc12)NC(=O)[C@H](CCC(N)=O)NC(=O)[C@@H](NC(=O)[C@H](Cc1ccccc1)NC(=O)[C@H](CC(=O)O)NC(=O)[C@H](CCC(N)=O)NC(=O)[C@H](C)NC(=O)[C@H](C)NC(=O)[C@H](CCCNC(=N)N)NC(=O)C(C)(C)NC(=O)[C@H](CC(=O)O)NC(=O)[C@H](CC(C)C)NC(=O)[C@H](Cc1ccc(O)cc1)NC(=O)[C@H](CCCCN)NC(=O)[C@H](CO)NC(=O)[C@H](Cc1ccc(CNC(=O)COCCOCCNC(=O)COCCOCCNC(=O)CC[C@H](NC(=O)CCCCCCCCCCCCCCCCCCC(=O)O)C(=O)O)cc1)NC(=O)[C@H](CC(=O)O)NC(=O)[C@H](CO)NC(=O)[C@@H](NC(=O)[C@H](Cc1ccccc1)NC(=O)[C@@H](NC(=O)CNC(=O)[C@H](CCC(N)=O)NC(=O)C(C)(C)NC(=O)[C@@H](N)Cc1c[nH]cn1)[C@@H](C)O)[C@@H](C)O)C(C)C)C(=O)N[C@@H](C)C(=O)N[C@H](C(=O)N[C@@H](CCCCNC(=O)CC[C@H](N)C(=O)O)C(N)=O)[C@@H](C)O [TP581] (H-H[Aib]QGTFTSD[Phe(4-CH2NH2)]([AEEA-AEEA-γGlu-C20 diacid])SKYLD[Aib]RAAQDFVQWLLATK(γGlu)-NH2; N-terminus assumed) |  |  | 2.9 | 

Now from value to molecule:

Row | EC50 (human GLP1R) | EC50 (human GCGR; [1]) | hGCGR/hGLP1R (hTone) (human GCGR) | EC50 (human GCGR; summary statement: EC50 at each of the glucagon and GLP-1 receptors, read-out: EC50 at the glucagon receptor) | Compound
5 | < 5 nM | 1.45 nM | 0.8 | < 5 nM | CC(C)C[C@H](NC(=O)[C@H](Cc1c[nH]c2ccccc12)NC(=O)[C@H](CCCCNC(=O)COCCOCCNC(=O)COCCOCCNC(=O)CC[C@H](NC(=O)CCCCCCCCCCCCCCCCCCC(=O)O)C(=O)O)NC(=O)[C@@H](NC(=O)[C@H](Cc1ccccc1)NC(=O)[C@H](CC(=O)O)NC(=O)[C@H](CCC(N)=O)NC(=O)[C@H](C)NC(=O)[C@H](C)NC(=O)[C@H](CCCNC(=N)N)NC(=O)C(C)(C)NC(=O)[C@H](CC(=O)O)NC(=O)[C@H](CC(C)C)NC(=O)[C@H](Cc1ccc(O)cc1)NC(=O)[C@H](CCCCN)NC(=O)[C@H](CO)NC(=O)[C@H](Cc1ccc(O)cc1)NC(=O)[C@H](CC(=O)O)NC(=O)[C@H](CO)NC(=O)[C@@H](NC(=O)[C@H](Cc1ccccc1)NC(=O)[C@@H](NC(=O)CNC(=O)[C@H](CCC(N)=O)NC(=O)C(C)(C)NC(=O)[C@@H](N)Cc1c[nH]cn1)[C@@H](C)O)[C@@H](C)O)C(C)C)C(=O)N[C@@H](CCS(C)(=O)=O)C(=O)N[C@@H](CC(=O)O)C(=O)N[C@H](C(N)=O)[C@@H](C)O [TP576] (H-H[Aib]QGTFTSDYSKYLD[Aib]RAAQDFVK([AEEA-AEEA-γGlu-C20 diacid])WL[Met(O2)]DT-NH2; N-terminus assumed)
6 |  |  | 0.7 |  | CC(C)C[C@H](NC(=O)[C@H](Cc1c[nH]c2ccccc12)NC(=O)[C@H](CCCCNC(=O)COCCOCCNC(=O)COCCOCCNC(=O)CC[C@H](NC(=O)CCCCCCCCCCCCCCCCC(=O)O)C(=O)O)NC(=O)[C@@H](NC(=O)[C@H](Cc1ccccc1)NC(=O)[C@H](CC(=O)O)NC(=O)[C@H](CCC(N)=O)NC(=O)[C@H](C)NC(=O)[C@H](C)NC(=O)[C@H](CCCNC(=N)N)NC(=O)C(C)(C)NC(=O)[C@H](CC(=O)O)NC(=O)[C@H](CC(C)C)NC(=O)[C@H](Cc1ccc(O)cc1)NC(=O)[C@H](CCCCN)NC(=O)[C@H](CO)NC(=O)[C@H](Cc1ccc(O)cc1)NC(=O)[C@H](CC(=O)O)NC(=O)[C@H](CO)NC(=O)[C@@H](NC(=O)[C@H](Cc1ccccc1)NC(=O)[C@@H](NC(=O)CNC(=O)[C@H](CCC(N)=O)NC(=O)C(C)(C)NC(=O)[C@@H](N)Cc1c[nH]cn1)[C@@H](C)O)[C@@H](C)O)C(C)C)C(=O)N[C@@H](CCS(C)(=O)=O)C(=O)N[C@@H](CC(=O)O)C(=O)N[C@H](C(N)=O)[C@@H](C)O [TP575] (H-H[Aib]QGTFTSDYSKYLD[Aib]RAAQDFVK([AEEA-AEEA-γGlu-C18 diacid])WL[Met(O2)]DT-NH2; N-terminus assumed)
7 |  | > 4.9 nM |  |  | CC(C)C[C@H](NC(=O)[C@H](Cc1ccc(O)cc1)NC(=O)[C@H](CCC(=O)O)NC(=O)[C@H](CO)NC(=O)[C@H](Cc1ccc(O)cc1)NC(=O)[C@H](CC(=O)O)NC(=O)[C@H](CO)NC(=O)[C@@H](NC(=O)[C@H](Cc1ccccc1)NC(=O)[C@@H](NC(=O)CNC(=O)[C@H](CCC(N)=O)NC(=O)C(C)(C)NC(=O)[C@@H](N)Cc1c[nH]cn1)[C@@H](C)O)[C@@H](C)O)C(=O)N[C@@H](CC(=O)O)C(=O)N[C@@H](CCCCN)C(=O)N[C@@H](CCCNC(=N)N)C(=O)N[C@@H](C)C(=O)N[C@@H](C)C(=O)N[C@@H](CCC(N)=O)C(=O)N[C@@H](CC(=O)O)C(=O)N[C@@H](Cc1ccccc1)C(=O)N[C@H](C(=O)N[C@@H](CCCCNC(=O)COCCOCCNC(=O)COCCOCCNC(=O)CC[C@H](NC(=O)CCCCCCCCCCCCCCCCC(=O)O)C(=O)O)C(=O)N[C@@H](Cc1c[nH]c2ccccc12)C(=O)N[C@@H](CC(C)C)C(=O)N[C@@H](CCS(C)(=O)=O)C(=O)N[C@@H](CC(=O)O)C(=O)N[C@H](C(N)=O)[C@@H](C)O)C(C)C [TP700] (H-H[Aib]QGTFTSDYSEYLDKRAAQDFVK([AEEA-AEEA-γGlu-C18 diacid])WL[Met(O2)]DT-NH2)
